One data set addresses T1, SLC22A24 (Homo sapiens, UniProt Q8N4F4).
T1 sequence (Q8N4F4 1-552): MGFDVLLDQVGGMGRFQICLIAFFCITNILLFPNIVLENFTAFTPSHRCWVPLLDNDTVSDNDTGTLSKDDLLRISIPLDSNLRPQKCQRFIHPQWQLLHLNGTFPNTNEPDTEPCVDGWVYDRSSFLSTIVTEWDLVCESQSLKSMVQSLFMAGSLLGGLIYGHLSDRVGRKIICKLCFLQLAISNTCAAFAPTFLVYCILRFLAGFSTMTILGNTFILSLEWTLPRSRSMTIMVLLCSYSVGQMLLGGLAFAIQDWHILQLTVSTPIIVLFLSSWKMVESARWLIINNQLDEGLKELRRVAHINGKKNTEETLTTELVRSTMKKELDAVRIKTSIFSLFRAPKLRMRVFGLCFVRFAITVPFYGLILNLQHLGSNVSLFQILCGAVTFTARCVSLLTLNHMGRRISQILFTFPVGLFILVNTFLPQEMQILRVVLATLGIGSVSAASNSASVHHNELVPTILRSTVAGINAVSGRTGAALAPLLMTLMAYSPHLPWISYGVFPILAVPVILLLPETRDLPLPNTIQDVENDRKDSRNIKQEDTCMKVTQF
Briefly: cell-based.

Substrate in data set [1]: C[C@]12CC[C@@H]3c4ccc(OS(=O)(=O)O)cc4CC[C@H]3[C@@H]1CCC2=O
Nature of the data set: cells, lysate or membranes.

Substrate in data set [2]: C[C@]12CC[C@@H]3c4ccc(O)cc4CC[C@H]3[C@@H]1CC[C@@H]2O[C@@H]1O[C@H](C(=O)O)[C@@H](O)[C@H](O)[C@H]1O
Nature of the data set: cells, lysate or membranes. In kind it is cell-based, Homo sapiens.

Substrate in data set [3]: C[C@H](CCC(=O)NCC(=O)O)[C@H]1CC[C@H]2[C@@H]3[C@H](O)C[C@@H]4C[C@H](O)CC[C@]4(C)[C@H]3C[C@H](O)[C@]12C
Nature of the data set: cells, lysate or membranes. In kind it is cell-based, Homo sapiens.

Counter-ions that a name gives are not always drawn. Like-named read-outs stand apart in the source and are kept apart here.

For orientation: IC50 means the concentration that gives 50% inhibition. Turning to `CN(CCOc1ccc(CC2SC(=O)NC2=O)cc1)c1ccccn1` (stereo not drawn) [Rosiglitazone], the concentration for half-maximal inhibition (IC50) on SLC22A24 (read-out: IC50 [μM ± SD]) turned out to be 3.3 ± 1.4 µM.

For the molecule `O=C(O)CSc1nnc(Br)n1-c1ccc(C2CC2)c2ccccc12` [Lesinurad], the IC50 at SLC22A24 (read-out: IC50 [μM ± SD]) worked out at 13 ± 6.1 µM.

For `CC(=O)[C@H]1CC[C@H]2[C@@H]3CCC4=CC(=O)CC[C@]4(C)[C@H]3CC[C@]12C` [Progesterone], half-maximal inhibition against SLC22A24 (IC50) was put at 7.4 ± 3 µM.

`CC(=O)[C@H]1CC[C@H]2[C@@H]3CC=C4C[C@@H](OS(=O)(=O)O)CC[C@]4(C)[C@H]3CC[C@]12C` [Pregnenolone sulfate] returned an IC50 against SLC22A24 of 1.4 ± 0.1 µM.

On to `C[C@H](CCC(=O)O)[C@H]1CC[C@H]2[C@@H]3[C@@H](O)C[C@@H]4C[C@H](O)CC[C@]4(C)[C@H]3CC[C@]12C` [Ursodeoxycholic acid], for which the 50% inhibitory concentration (IC50) on SLC22A24 (read-out: IC50 [μM ± SD]) turned out to be 7.6 ± 1.2 µM.

In the case of `C[C@H](CCC(=O)O)[C@H]1CC[C@H]2[C@@H]3[C@H](O)C[C@@H]4C[C@H](O)CC[C@]4(C)[C@H]3CC[C@]12C` [Chenodeoxycholic acid], the IC50 at SLC22A24 (read-out: IC50 [μM ± SD]) came to 2.6 ± 1 µM.

B1: SLC22A24 (Homo sapiens) (protein)
chain: T1 sequence (Q8N4F4 1-552)
By Km is commonly meant the substrate concentration at which the rate is half of its maximum. Take B1: the Km is 8.6 ± 0.3 µM in data set [1], 17.5 ± 0.2 µM in data set [2] and 33.4 ± 2.5 µM in data set [3].
